Tested on: 377384-186-R-J1-PDC complex spheroid viability
Assay: Anticancer human tumor 377384-186-R-J1-PDC patient-derived pancreatic carcinoma cell line growth inhibition [RAS]
Conditions: for IC50: curve of first compound; for viability, T/C: stronger effect = lower value
Outline: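 Tumour cells grown as complex spheroids with HUVEC endothelial cells and mesenchymal stem cells, treated with RAS pathway inhibitor combinations. Each agent spans half-log steps from near clinical Cmax, or 10 microM where Cmax is unknown.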

[1] = second compound 0.000949 µM, first compound 0.000949 µM
[2] = second compound 0.000949 µM, first compound 0.003 µM
[3] = second compound 0.000949 µM, first compound 0.00949 µM
[4] = second compound 0.000949 µM, first compound 0.03 µM
[5] = second compound 0.000949 µM, first compound 0.0949 µM
[6] = second compound 0.000949 µM, first compound 0.3 µM
[7] = second compound 0.003 µM, first compound 0.000949 µM
[8] = second compound 0.003 µM, first compound 0.003 µM
[9] = second compound 0.003 µM, first compound 0.00949 µM
[10] = second compound 0.003 µM, first compound 0.03 µM
[11] = second compound 0.003 µM, first compound 0.0949 µM
[12] = second compound 0.003 µM, first compound 0.3 µM
[13] = second compound 0.00949 µM, first compound 0.000949 µM
[14] = second compound 0.00949 µM, first compound 0.003 µM
[15] = second compound 0.00949 µM, first compound 0.00949 µM
[16] = second compound 0.00949 µM, first compound 0.03 µM
[17] = second compound 0.00949 µM, first compound 0.0949 µM
[18] = second compound 0.00949 µM, first compound 0.3 µM
[19] = second compound 0.03 µM, first compound 0.000949 µM
[20] = second compound 0.03 µM, first compound 0.003 µM
[21] = second compound 0.03 µM, first compound 0.00949 µM
[22] = second compound 0.03 µM, first compound 0.03 µM
[23] = second compound 0.03 µM, first compound 0.0949 µM
[24] = second compound 0.03 µM, first compound 0.3 µM
[25] = second compound 0.0949 µM, first compound 0.000949 µM
[26] = second compound 0.0949 µM, first compound 0.003 µM
[27] = second compound 0.0949 µM, first compound 0.00949 µM
[28] = second compound 0.0949 µM, first compound 0.03 µM
[29] = second compound 0.0949 µM, first compound 0.0949 µM
[30] = second compound 0.0949 µM, first compound 0.3 µM
[31] = second compound 0.3 µM, first compound 0.000949 µM
[32] = second compound 0.3 µM, first compound 0.003 µM
[33] = second compound 0.3 µM, first compound 0.00949 µM
[34] = second compound 0.3 µM, first compound 0.03 µM
[35] = second compound 0.3 µM, first compound 0.0949 µM
[36] = second compound 0.3 µM, first compound 0.3 µM
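Note: spheroids exposed to compounds for seven days before readout.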

Which results are given for `C=CC(=O)N1CCN(c2nc(OCC3CCCN3C)nc3c(F)c(-c4nc(N)cc(C)c4C(F)(F)F)c(Cl)cc23)C(C)C1` (stereo unspecified) + CCn1c(-c2cccnc2C(C)OC)c2c3cc(ccc31)N1CCOC(CC(NC(=O)C(C(C)C)N(C)C(=O)C3(F)CCN(C(=O)C#CC(C)(C)N(C)C)CC3)C(=O)N3CCCC(N3)C(=O)OCC(C)(C)C2)C1?
IC50 (second compound 0.000949 µM): > 1000 nM; IC50 (second compound 0.003 µM): > 1000 nM; IC50 (second compound 0.00949 µM): > 1000 nM; IC50 (second compound 0.03 µM): > 1000 nM; IC50 (second compound 0.0949 µM): > 1000 nM; IC50 (second compound 0.3 µM): > 1000 nM; viability, T/C (second compound 0.000949 µM, first compound 0.00316 µM): 107%; viability, T/C (second compound 0.000949 µM, first compound 0.01 µM): 108%; viability, T/C (second compound 0.000949 µM, first compound 0.0316 µM): 117%; viability, T/C (second compound 0.000949 µM, first compound 0.1 µM): 103%; viability, T/C (second compound 0.000949 µM, first compound 0.316 µM): 110%; viability, T/C (second compound 0.000949 µM, first compound 1 µM): 89.9%; viability, T/C (second compound 0.003 µM, first compound 0.00316 µM): 104%; viability, T/C (second compound 0.003 µM, first compound 0.01 µM): 96.4%; viability, T/C (second compound 0.003 µM, first compound 0.0316 µM): 103%; viability, T/C (second compound 0.003 µM, first compound 0.1 µM): 114%; viability, T/C (second compound 0.003 µM, first compound 0.316 µM): 104%; viability, T/C (second compound 0.003 µM, first compound 1 µM): 93.3%; viability, T/C (second compound 0.00949 µM, first compound 0.00316 µM): 113%; viability, T/C (second compound 0.00949 µM, first compound 0.01 µM): 97.7%; viability, T/C (second compound 0.00949 µM, first compound 0.0316 µM): 120%; viability, T/C (second compound 0.00949 µM, first compound 0.1 µM): 117%; viability, T/C (second compound 0.00949 µM, first compound 0.316 µM): 104%; viability, T/C (second compound 0.00949 µM, first compound 1 µM): 99.2%; viability, T/C (second compound 0.03 µM, first compound 0.00316 µM): 104%; viability, T/C (second compound 0.03 µM, first compound 0.01 µM): 96.7%; viability, T/C (second compound 0.03 µM, first compound 0.0316 µM): 99.7%; viability, T/C (second compound 0.03 µM, first compound 0.1 µM): 92.5%; viability, T/C (second compound 0.03 µM, first compound 0.316 µM): 99%; viability, T/C (second compound 0.03 µM, first compound 1 µM): 106%; viability, T/C (second compound 0.0949 µM, first compound 0.00316 µM): 93.3%; viability, T/C (second compound 0.0949 µM, first compound 0.01 µM): 91.3%; viability, T/C (second compound 0.0949 µM, first compound 0.0316 µM): 94.8%; viability, T/C (second compound 0.0949 µM, first compound 0.1 µM): 103%; viability, T/C (second compound 0.0949 µM, first compound 0.316 µM): 101%; viability, T/C (second compound 0.0949 µM, first compound 1 µM): 93.4%; viability, T/C (second compound 0.3 µM, first compound 0.00316 µM): 86.1%; viability, T/C (second compound 0.3 µM, first compound 0.01 µM): 86.3%; viability, T/C (second compound 0.3 µM, first compound 0.0316 µM): 96.8%; viability, T/C (second compound 0.3 µM, first compound 0.1 µM): 88.1%; viability, T/C (second compound 0.3 µM, first compound 0.316 µM): 96%; viability, T/C (second compound 0.3 µM, first compound 1 µM): 94.8%

How did the IC50 (second compound 0.000949 µM) turn out when `CC1(C)CCC(Nc2ncc(C(F)(F)F)c(-c3c[nH]c4c(P(C)(C)=O)c(C#N)ccc34)n2)CN1` (stereo unspecified) + CCn1c(-c2cccnc2C(C)OC)c2c3cc(ccc31)N1CCOC(CC(NC(=O)C(C(C)C)N(C)C(=O)C3(F)CCN(C(=O)C#CC(C)(C)N(C)C)CC3)C(=O)N3CCCC(N3)C(=O)OCC(C)(C)C2)C1 was run?
The IC50 was 6.49 nM.

And the IC50 (second compound 0.003 µM)?
The IC50 was 6.94 nM.

And the IC50 (second compound 0.00949 µM)?
Its IC50 is 6.25 nM.

What about the IC50 (second compound 0.03 µM) of the same compound?
Its IC50 is 6.09 nM.

What about the IC50 (second compound 0.0949 µM) of the same compound?
Its IC50 is 4.39 nM.

What about the IC50 (second compound 0.3 µM) of the same compound?
Its IC50 is 4.25 nM.

What about the viability, T/C [1] of the same compound?
The viability, T/C was 96%.

What about the viability, T/C [2] of the same compound?
Its viability, T/C is 75.9%.

What about the viability, T/C [3] of the same compound?
The viability, T/C was 36.1%.

And the viability, T/C [4]?
The viability, T/C was 30.8%.

And the viability, T/C [5]?
Its viability, T/C is 22.1%.

And the viability, T/C [6]?
Its viability, T/C is 22.8%.

What about the viability, T/C [7] of the same compound?
The viability, T/C was 92.7%.

What about the viability, T/C [8] of the same compound?
Its viability, T/C is 82.8%.

And the viability, T/C [9]?
The viability, T/C was 37.5%.

And the viability, T/C [10]?
The viability, T/C was 25.2%.

And the viability, T/C [11]?
The viability, T/C was 22.9%.

And the viability, T/C [12]?
Its viability, T/C is 20.3%.

And the viability, T/C [13]?
The viability, T/C was 96.6%.

What about the viability, T/C [14] of the same compound?
The viability, T/C was 71.8%.

What about the viability, T/C [15] of the same compound?
Its viability, T/C is 37.8%.

What about the viability, T/C [16] of the same compound?
Its viability, T/C is 23.5%.

What about the viability, T/C [17] of the same compound?
The viability, T/C was 21.9%.

And the viability, T/C [18]?
The viability, T/C was 20.6%.

What about the viability, T/C [19] of the same compound?
Its viability, T/C is 85.2%.

What about the viability, T/C [20] of the same compound?
The viability, T/C was 73.4%.

And the viability, T/C [21]?
The viability, T/C was 35.3%.

And the viability, T/C [22]?
The viability, T/C was 19.5%.

What about the viability, T/C [23] of the same compound?
Its viability, T/C is 19.3%.

And the viability, T/C [24]?
The viability, T/C was 16.3%.

What about the viability, T/C [25] of the same compound?
Its viability, T/C is 88.5%.

What about the viability, T/C [26] of the same compound?
Its viability, T/C is 61.7%.

What about the viability, T/C [27] of the same compound?
The viability, T/C was 26.1%.

What about the viability, T/C [28] of the same compound?
The viability, T/C was 19.4%.

What about the viability, T/C [29] of the same compound?
Its viability, T/C is 16.6%.

What about the viability, T/C [30] of the same compound?
Its viability, T/C is 14.8%.

And the viability, T/C [31]?
The viability, T/C was 85.2%.

And the viability, T/C [32]?
The viability, T/C was 61.6%.

And the viability, T/C [33]?
Its viability, T/C is 23%.

What about the viability, T/C [34] of the same compound?
The viability, T/C was 18.1%.

And the viability, T/C [35]?
The viability, T/C was 15.7%.

What about the viability, T/C [36] of the same compound?
The viability, T/C was 13.4%.

Which results are given for `CCc1c2c(nc3ccc(O)cc13)-c1cc3c(c(=O)n1C2)COC(=O)[C@]3(O)CC` + CCn1c(-c2cccnc2C(C)OC)c2c3cc(ccc31)N1CCOC(CC(NC(=O)C(C(C)C)N(C)C(=O)C3(F)CCN(C(=O)C#CC(C)(C)N(C)C)CC3)C(=O)N3CCCC(N3)C(=O)OCC(C)(C)C2)C1?
IC50 (second compound 0.000949 µM): 2.42 nM; IC50 (second compound 0.003 µM): 2 nM; IC50 (second compound 0.00949 µM): 2 nM; IC50 (second compound 0.03 µM): 1.53 nM; IC50 (second compound 0.0949 µM): < 0.949 nM; IC50 (second compound 0.3 µM): < 0.949 nM; viability, T/C [1]: 65.9%; viability, T/C [2]: 46.6%; viability, T/C [3]: 18.3%; viability, T/C [4]: 7.36%; viability, T/C [5]: 3.93%; viability, T/C [6]: 1.53%; viability, T/C [7]: 71.5%; viability, T/C [8]: 37.9%; viability, T/C [9]: 19.8%; viability, T/C [10]: 6.9%; viability, T/C [11]: 3.65%; viability, T/C [12]: 2.05%; viability, T/C [13]: 75.7%; viability, T/C [14]: 35.7%; viability, T/C [15]: 15.8%; viability, T/C [16]: 5.59%; viability, T/C [17]: 2.54%; viability, T/C [18]: 1.72%; viability, T/C [19]: 61.3%; viability, T/C [20]: 34.7%; viability, T/C [21]: 14.4%; viability, T/C [22]: 8.65%; viability, T/C [23]: 3.55%; viability, T/C [24]: 1.17%; viability, T/C [25]: 49.1%; viability, T/C [26]: 34.9%; viability, T/C [27]: 14.8%; viability, T/C [28]: 5.24%; viability, T/C [29]: 3.02%; viability, T/C [30]: 1.67%; viability, T/C [31]: 45.4%; viability, T/C [32]: 30.3%; viability, T/C [33]: 7.93%; viability, T/C [34]: 4.05%; viability, T/C [35]: 2.71%; viability, T/C [36]: 1.08%
